Source: PubChem BioAssay AID1963845 (Molecular Pharmacology Branch, DTP, NCI, 2024)

Tested on: 429239-143-T-J1-PDC complex spheroid viability
Assay: Anticancer human tumor 429239-143-T-J1-PDC patient-derived small cell lung carcinoma cell line growth inhibition [POLQ]
Conditions: for IC50: curve of first compound; for viability, T/C: stronger effect = lower value
In short: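 Three-cell-type spheroids modelling solid tumor plus stroma served as the readout system; POL inhibitors were tested individually and in combination, concentration ranges set by clinical Cmax where known.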

[1] = second compound 0.0316 µM, first compound 0.0316 µM
[2] = second compound 0.0316 µM, first compound 0.1 µM
[3] = second compound 0.0316 µM, first compound 0.316 µM
[4] = second compound 0.0316 µM, first compound 1 µM
[5] = second compound 0.0316 µM, first compound 3.16 µM
[6] = second compound 0.0316 µM, first compound 10 µM
[7] = second compound 0.1 µM, first compound 0.0316 µM
[8] = second compound 0.1 µM, first compound 0.1 µM
[9] = second compound 0.1 µM, first compound 0.316 µM
[10] = second compound 0.1 µM, first compound 1 µM
[11] = second compound 0.1 µM, first compound 3.16 µM
[12] = second compound 0.1 µM, first compound 10 µM
[13] = second compound 0.316 µM, first compound 0.0316 µM
[14] = second compound 0.316 µM, first compound 0.1 µM
[15] = second compound 0.316 µM, first compound 0.316 µM
[16] = second compound 0.316 µM, first compound 1 µM
[17] = second compound 0.316 µM, first compound 3.16 µM
[18] = second compound 0.316 µM, first compound 10 µM
[19] = second compound 1 µM, first compound 0.0316 µM
[20] = second compound 1 µM, first compound 0.1 µM
[21] = second compound 1 µM, first compound 0.316 µM
[22] = second compound 1 µM, first compound 1 µM
[23] = second compound 1 µM, first compound 3.16 µM
[24] = second compound 1 µM, first compound 10 µM
[25] = second compound 3.16 µM, first compound 0.0316 µM
[26] = second compound 3.16 µM, first compound 0.1 µM
[27] = second compound 3.16 µM, first compound 0.316 µM
[28] = second compound 3.16 µM, first compound 1 µM
[29] = second compound 3.16 µM, first compound 3.16 µM
[30] = second compound 3.16 µM, first compound 10 µM
[31] = second compound 10 µM, first compound 0.0316 µM
[32] = second compound 10 µM, first compound 0.1 µM
[33] = second compound 10 µM, first compound 0.316 µM
[34] = second compound 10 µM, first compound 1 µM
[35] = second compound 10 µM, first compound 3.16 µM
[36] = second compound 10 µM, first compound 10 µM
[37] = second compound 0.0316 µM, first compound 0.00316 µM
[38] = second compound 0.0316 µM, first compound 0.01 µM
[39] = second compound 0.1 µM, first compound 0.00316 µM
[40] = second compound 0.1 µM, first compound 0.01 µM
[41] = second compound 0.316 µM, first compound 0.00316 µM
[42] = second compound 0.316 µM, first compound 0.01 µM
[43] = second compound 1 µM, first compound 0.00316 µM
[44] = second compound 1 µM, first compound 0.01 µM
[45] = second compound 3.16 µM, first compound 0.00316 µM
[46] = second compound 3.16 µM, first compound 0.01 µM
[47] = second compound 10 µM, first compound 0.00316 µM
[48] = second compound 10 µM, first compound 0.01 µM
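Further: luminescence signal used as surrogate measure of viable cells; spheroids exposed to compounds for seven days before readout.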
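Wherever viability, T/C is given: 100% = DMSO vehicle control viability as luminescence relative to vehicle.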

SMILES: Nc1ccn(C2OC(CO)C(O)C2(F)F)c(=O)n1 (stereo not drawn) + Nc1ccc(C#CCN(C(=O)Cc2ncc(C(F)(F)F)cc2C(F)(F)F)c2ccc(F)cc2)nn1
- IC50 (second compound 0.0316 µM): 49.4 nM
- IC50 (second compound 0.1 µM): 49.9 nM
- IC50 (second compound 0.316 µM): 48.3 nM
- IC50 (second compound 1 µM): 46.2 nM
- IC50 (second compound 3.16 µM): 47.6 nM
- IC50 (second compound 10 µM): 50.6 nM
- viability, T/C [1]: 77.1%
- viability, T/C [2]: 7.33%
- viability, T/C [3]: 5.99%
- viability, T/C [4]: 6.45%
- viability, T/C [5]: 6.94%
- viability, T/C [6]: 6.48%
- viability, T/C [7]: 77.7%
- viability, T/C [8]: 7.8%
- viability, T/C [9]: 7.04%
- viability, T/C [10]: 5.04%
- viability, T/C [11]: 8.53%
- viability, T/C [12]: 6.25%
- viability, T/C [13]: 75%
- viability, T/C [14]: 7.13%
- viability, T/C [15]: 7.6%
- viability, T/C [16]: 6.15%
- viability, T/C [17]: 6.48%
- viability, T/C [18]: 7.03%
- viability, T/C [19]: 70.9%
- viability, T/C [20]: 7.27%
- viability, T/C [21]: 7.19%
- viability, T/C [22]: 7.47%
- viability, T/C [23]: 6.86%
- viability, T/C [24]: 6.1%
- viability, T/C [25]: 73.6%
- viability, T/C [26]: 7.11%
- viability, T/C [27]: 6.48%
- viability, T/C [28]: 5.97%
- viability, T/C [29]: 6.64%
- viability, T/C [30]: 8.77%
- viability, T/C [31]: 78%
- viability, T/C [32]: 9.42%
- viability, T/C [33]: 7.4%
- viability, T/C [34]: 7.48%
- viability, T/C [35]: 6.25%
- viability, T/C [36]: 7%

SMILES: CNCc1ccc(-c2[nH]c3cc(F)cc4c3c2CCNC4=O)cc1 + Cc1cccc(N(C)C(=O)C2C(O)CCN2c2nc(C)cc(C(F)(F)F)c2C#N)c1
- IC50 (second compound 0.0316 µM): 3090 nM
- IC50 (second compound 0.1 µM): 2600 nM
- IC50 (second compound 0.316 µM): 2210 nM
- IC50 (second compound 1 µM): 2220 nM
- IC50 (second compound 3.16 µM): 2450 nM
- IC50 (second compound 10 µM): 3240 nM
- viability, T/C [1]: 113%
- viability, T/C [2]: 83.8%
- viability, T/C [3]: 85.1%
- viability, T/C [4]: 75%
- viability, T/C [5]: 51%
- viability, T/C [6]: 21.1%
- viability, T/C [7]: 90.9%
- viability, T/C [8]: 92.7%
- viability, T/C [9]: 79.4%
- viability, T/C [10]: 66.2%
- viability, T/C [11]: 47.5%
- viability, T/C [12]: 19.7%
- viability, T/C [13]: 97.8%
- viability, T/C [14]: 94.7%
- viability, T/C [15]: 75.8%
- viability, T/C [16]: 70.7%
- viability, T/C [17]: 40%
- viability, T/C [18]: 22.7%
- viability, T/C [19]: 86.7%
- viability, T/C [20]: 82.3%
- viability, T/C [21]: 72.3%
- viability, T/C [22]: 66.2%
- viability, T/C [23]: 42.4%
- viability, T/C [24]: 24.4%
- viability, T/C [25]: 91.3%
- viability, T/C [26]: 84.9%
- viability, T/C [27]: 95.5%
- viability, T/C [28]: 62.9%
- viability, T/C [29]: 47.8%
- viability, T/C [30]: 22%
- viability, T/C [31]: 80.3%
- viability, T/C [32]: 91.4%
- viability, T/C [33]: 83.8%
- viability, T/C [34]: 61.8%
- viability, T/C [35]: 54.2%
- viability, T/C [36]: 23%

SMILES: C=CCn1c(=O)c2cnc(Nc3ccc(N4CCN(C)CC4)cc3)nc2n1-c1cccc(C(C)(C)O)n1 + Cc1cccc(N(C)C(=O)C2C(O)CCN2c2nc(C)cc(C(F)(F)F)c2C#N)c1
- IC50 (second compound 0.0316 µM): 644 nM
- IC50 (second compound 0.1 µM): 637 nM
- IC50 (second compound 0.316 µM): 593 nM
- IC50 (second compound 1 µM): 587 nM
- IC50 (second compound 3.16 µM): 609 nM
- IC50 (second compound 10 µM): 642 nM
- viability, T/C [37]: 106%
- viability, T/C [38]: 110%
- viability, T/C [1]: 103%
- viability, T/C [2]: 95.1%
- viability, T/C [3]: 103%
- viability, T/C [4]: 17%
- viability, T/C [39]: 105%
- viability, T/C [40]: 105%
- viability, T/C [7]: 97.5%
- viability, T/C [8]: 102%
- viability, T/C [9]: 103%
- viability, T/C [10]: 16.1%
- viability, T/C [41]: 109%
- viability, T/C [42]: 106%
- viability, T/C [13]: 106%
- viability, T/C [14]: 116%
- viability, T/C [15]: 91.1%
- viability, T/C [16]: 16.1%
- viability, T/C [43]: 107%
- viability, T/C [44]: 100%
- viability, T/C [19]: 103%
- viability, T/C [20]: 111%
- viability, T/C [21]: 89.6%
- viability, T/C [22]: 16%
- viability, T/C [45]: 108%
- viability, T/C [46]: 102%
- viability, T/C [25]: 97.7%
- viability, T/C [26]: 111%
- viability, T/C [27]: 93.3%
- viability, T/C [28]: 16.7%
- viability, T/C [47]: 118%
- viability, T/C [48]: 113%
- viability, T/C [31]: 113%
- viability, T/C [32]: 100%
- viability, T/C [33]: 104%
- viability, T/C [34]: 16.6%

SMILES: COc1cccc(OCCCN)c1-c1cc(Nc2cnc(C#N)cn2)n[nH]1 + Cc1cccc(N(C)C(=O)C2C(O)CCN2c2nc(C)cc(C(F)(F)F)c2C#N)c1
- IC50 (second compound 0.0316 µM): 377 nM
- IC50 (second compound 0.1 µM): 339 nM
- IC50 (second compound 0.316 µM): 248 nM
- IC50 (second compound 1 µM): 256 nM
- IC50 (second compound 3.16 µM): 273 nM
- IC50 (second compound 10 µM): 227 nM
- viability, T/C [37]: 101%
- viability, T/C [38]: 110%
- viability, T/C [1]: 87.7%
- viability, T/C [2]: 73.1%
- viability, T/C [3]: 52.7%
- viability, T/C [4]: 39.3%
- viability, T/C [39]: 101%
- viability, T/C [40]: 106%
- viability, T/C [7]: 92.9%
- viability, T/C [8]: 72%
- viability, T/C [9]: 52.7%
- viability, T/C [10]: 36.7%
- viability, T/C [41]: 106%
- viability, T/C [42]: 108%
- viability, T/C [13]: 86.4%
- viability, T/C [14]: 67.2%
- viability, T/C [15]: 46.6%
- viability, T/C [16]: 32%
- viability, T/C [43]: 108%
- viability, T/C [44]: 105%
- viability, T/C [19]: 90.8%
- viability, T/C [20]: 68.1%
- viability, T/C [21]: 46.5%
- viability, T/C [22]: 33.1%
- viability, T/C [45]: 117%
- viability, T/C [46]: 108%
- viability, T/C [25]: 93.8%
- viability, T/C [26]: 65.4%
- viability, T/C [27]: 49.8%
- viability, T/C [28]: 34.9%
- viability, T/C [47]: 118%
- viability, T/C [48]: 92.1%
- viability, T/C [31]: 92.1%
- viability, T/C [32]: 66.4%
- viability, T/C [33]: 39.3%
- viability, T/C [34]: 27.7%
